In general, IC50 refers to the concentration that gives 50% inhibition. Low readings indicate inhibition by little substance, high ones a need for much substance. Broadly, the Ki is a dissociation constant, usually derived from enzyme kinetics or from competition with a known ligand. For orientation: inhibition means the relative decrease from the control value, in per cent. A low value points to a response near the control.

Assay [1] concerns the target T1, Adenosine receptor A2a (Homo sapiens, UniProt P29274). In words: Inhibitory activity against binding of [3H]CGS-21680 to human A2a receptor (hA2a) using competition binding assay.
Assay [2] addresses T1, Adenosine receptor A2a. Nature of the assay: Inhibitory activity against membranes from HEK293 cells stably expressing the human A2a receptor (hA2a). In kind it is cell-based.
For assay [3], the target named is T2, Adenosine receptor A1 (Homo sapiens, UniProt P30542).
T2 sequence (P30542 whole entry): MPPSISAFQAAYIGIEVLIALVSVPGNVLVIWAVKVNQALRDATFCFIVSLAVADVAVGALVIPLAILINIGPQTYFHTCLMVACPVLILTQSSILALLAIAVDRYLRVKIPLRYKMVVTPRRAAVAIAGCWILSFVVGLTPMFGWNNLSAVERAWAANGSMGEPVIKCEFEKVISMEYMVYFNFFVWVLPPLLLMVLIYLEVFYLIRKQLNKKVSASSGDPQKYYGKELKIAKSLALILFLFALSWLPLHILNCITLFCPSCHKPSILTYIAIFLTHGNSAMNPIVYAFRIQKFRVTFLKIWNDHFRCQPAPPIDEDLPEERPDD
Nature of the assay: Inhibitory activity against membranes from yeast cells transformed with human A1 receptor (hA1). In kind it is cell-based.

The target in assay [4] is T2, Adenosine receptor A1. Nature of the assay: Inhibitory activity against binding of the [3H]DPCPX to human A1 receptor (hA1) radioligands using competition binding assay.
The target of assay [5] is T2, Adenosine receptor A1. Nature of the assay: Inhibitory activity against binding of [3H]DPCPX to human A1 receptor (hA1) using competition binding assay.
In assay [6] the target is T1, Adenosine receptor A2a. In words: Inhibitory activity against binding of the [3H]CGS-21680 to human A2a receptor (hA2a) radioligands using competition binding assay.
The target in assay [7] is T1, Adenosine receptor A2a. In words: Inhibitory activity against membranes from HEK293 cells stably expressing the human A2a receptor (hA2a) at a concentration of 10 uM. In kind it is cell-based.
The target of assay [8] is T3, Adenosine receptor A1 (Homo sapiens) (UniProt P30542).
T3 sequence (whole entry): T2 sequence (P30542 whole entry)
Nature of the assay: Inhibitory activity against binding of the [3H]DPCPX to human A1 receptor (hA1) radioligands using competition binding assay at a concentration of 10 uM.

Assay [9] addresses T1, Adenosine receptor A2a. Nature of the assay: Inhibitory activity against binding of [3H]CGS-21680 to human A2a receptor (hA2a) using competition binding assay at a concentration of 10 uM.
For assay [10], the target named is T1, Adenosine receptor A2a. Nature of the assay: Inhibitory activity against binding of the [3H]CGS-21680 to human A2a receptor (hA2a) radioligands using competition binding assay at a concentration of 10 uM.
Assay [11] addresses T3, Adenosine receptor A1 (Homo sapiens). In words: Inhibitory activity against binding of [3H]DPCPX to human A1 receptor (hA1) using competition binding assay at a concentration of 10 uM.

T1 sequence (P29274 whole entry): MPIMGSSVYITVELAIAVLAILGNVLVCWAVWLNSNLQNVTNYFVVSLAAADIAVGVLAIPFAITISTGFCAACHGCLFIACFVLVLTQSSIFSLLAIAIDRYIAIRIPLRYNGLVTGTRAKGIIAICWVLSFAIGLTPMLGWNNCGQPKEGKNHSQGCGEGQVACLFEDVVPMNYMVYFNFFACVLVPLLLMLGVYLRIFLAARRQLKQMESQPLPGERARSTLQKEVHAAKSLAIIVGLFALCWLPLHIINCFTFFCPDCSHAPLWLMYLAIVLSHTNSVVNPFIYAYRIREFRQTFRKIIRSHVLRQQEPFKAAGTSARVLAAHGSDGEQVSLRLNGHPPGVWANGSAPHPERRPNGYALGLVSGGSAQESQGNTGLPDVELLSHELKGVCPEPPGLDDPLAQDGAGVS

For `Cc1[nH]c2nc(-c3ccccc3)nc(NCCN3CCNC3=O)c2c1C`, the IC50 on Adenosine receptor A2a [1] was 604 nM; against Adenosine receptor A2a [2], 725 nM; on Adenosine receptor A1 [3], 422 nM; on Adenosine receptor A1 [5] it was 364 nM. For the same compound, the values for the Ki on Adenosine receptor A1 [4] and at Adenosine receptor A2a [6] were 144 nM and 215 nM, respectively.

With `Cc1[nH]c2nc(-c3ccccc3)nc(NCc3ccncc3)c2c1C`, the half-maximal inhibitory concentration (IC50) was 1710 nM on Adenosine receptor A2a [1], 2010 nM against Adenosine receptor A2a [2], 222 nM at Adenosine receptor A1 [3] and 262 nM at Adenosine receptor A1 [5]. For the same compound, the Ki stood at 132 nM on Adenosine receptor A1 [4] and 811 nM at Adenosine receptor A2a [6].

Take `Cc1[nH]c2nc(-c3ccccc3)nc(NCCCN3CCCC3=O)c2c1C`: on Adenosine receptor A1 [3], 5650 nM corresponded to half-maximal inhibition (IC50). The inhibition turned out to be 58% at Adenosine receptor A2a [7]; 75% in assay [8]; 54% at Adenosine receptor A2a [9]; 54% on Adenosine receptor A2a [10]; 75% in assay [11].

`Cc1[nH]c2nc(-c3ccccc3)nc(N[C@@H]3Cc4ccccc4[C@H]3O)c2c1C`: the half-maximal inhibitory concentration (IC50) on Adenosine receptor A2a [2] is 3220 nM; against Adenosine receptor A1 [3], 1700 nM; at Adenosine receptor A1 [5] it was 1810 nM. Further, the Ki on Adenosine receptor A1 [4] came out at 896 nM. The inhibition on Adenosine receptor A2a [9] and on Adenosine receptor A2a [10] was 59% in each case.

Take `Cc1[nH]c2nc(-c3ccccc3)nc(N[C@H](CO)CC(C)C)c2c1C`: the 50% inhibitory concentration (IC50) stood at 3400 nM at Adenosine receptor A2a [1], 2680 nM against Adenosine receptor A2a [2], 1750 nM against Adenosine receptor A1 [3] and 1910 nM at Adenosine receptor A1 [5]. Further, the Ki worked out at 951 nM at Adenosine receptor A1 [4] and 1140 nM on Adenosine receptor A2a [6].

In the case of `CC(=O)NCCNc1nc(-c2ccccc2)nc2[nH]c(C)c(C)c12`, the IC50 on Adenosine receptor A2a [1] and against Adenosine receptor A2a [2] was 48 nM each time. This compound had a Ki at Adenosine receptor A2a [6] of 23 nM.

Turning to `Cc1[nH]c2nc(-c3ccccc3)nc(N[C@@H]3CCCCNC3=O)c2c1C`, the IC50 at Adenosine receptor A2a [1] came to 2060 nM; against Adenosine receptor A2a [2], 2110 nM; against Adenosine receptor A1 [3] it was 1260 nM; at Adenosine receptor A1 [5] it was 1540 nM. Moreover, the values for the Ki on Adenosine receptor A1 [4] and on Adenosine receptor A2a [6] were 771 nM and 962 nM, respectively.

On to `Cc1nc2nc(-c3ccccc3)[nH]c(N[C@H](C)c3ccccc3)c-2c1C`, for which the 50% inhibitory concentration (IC50) at Adenosine receptor A2a [2] stood at 3880 nM; on Adenosine receptor A1 [3], 1610 nM; at Adenosine receptor A1 [5], 1980 nM. The same compound showed a Ki at Adenosine receptor A1 [4] of 981 nM. Further, the inhibition at Adenosine receptor A2a [9] and on Adenosine receptor A2a [10] was 61% in each case.
